Measurements taken from ChEMBL document CHEMBL4152309, “N-phenylsulfonyl-3,5-bis(arylidene)-4-piperidone derivatives as activation NF-κB inhibitors in hepatic carcinoma cell lines” (Eur J Med Chem, 2018).
pIC50: −log10 of the molar value. Activity calls are given as the source filed them. The calls are words filed in the database; no cut-off is given here.

Tests used:
QGY-7703 = experiment: Cytotoxicity against human QGY7703 cells assessed as reduction in cell viability after 24 hrs by MTT assay; type: functional, cell-based; settings: for pIC50: QGY-7703, 24 h
L02 = experiment: Cytotoxicity against human LO2 cells assessed as reduction in cell viability after 24 hrs by MTT assay; type: cell-based; settings: L02, 24 h
HepG2 = experiment: Cytotoxicity against human HepG2 cells assessed as reduction in cell viability after 24 hrs by MTT assay; type: functional, cell-based; settings: for pIC50: HepG2, 24 h
SMMC-7721 = experiment: Cytotoxicity against human SMMC7721 cells assessed as reduction in cell viability after 24 hrs by MTT assay; type: functional, cell-based; settings: for pIC50: SMMC-7721, 24 h
[1] = Cytotoxicity against mouse RAW264.7 cells assessed as cell viability at 10 uM after 24 hrs by MTT assay relative to control; type: cell-based; settings: read-out: Activity
[2] = Cytotoxicity against human HHL5 cells assessed as reduction in cell viability after 24 hrs by MTT assay; type: cell-based; settings: HHL-5, 24 h
RAW264.7 [3] = experiment: Anti-inflammatory activity in mouse RAW264.7 cells assessed as inhibition of LPS-induced TNFalpha secretion at 30 uM pretreated for 2 hrs followed by LPS stimulation and measured after 22 hrs by ELISA; type: functional, cell-based
RAW264.7 [4] = experiment: Anti-inflammatory activity in mouse RAW264.7 cells assessed as inhibition of LPS-induced IL-6 secretion at 30 uM pretreated for 2 hrs followed by LPS stimulation and measured after 22 hrs by ELISA; type: functional, cell-based
RAW264.7 [5] = experiment: Anti-inflammatory activity in mouse RAW264.7 cells assessed as inhibition of LPS-induced IL-6 secretion at 10 uM pretreated for 2 hrs followed by LPS stimulation and measured after 22 hrs by ELISA; type: functional, cell-based
RAW264.7 [6] = experiment: Anti-inflammatory activity in mouse RAW264.7 cells assessed as inhibition of LPS-induced TNFalpha secretion at 10 uM pretreated for 2 hrs followed by LPS stimulation and measured after 22 hrs by ELISA; type: functional, cell-based

Compound | pIC50 (QGY-7703) | pIC50 (L02) | pIC50 (HepG2) | pIC50 (SMMC-7721) | viability at 24 h, 10 µM [1] | pIC50 [2] | inhibition (RAW264.7 [3]) | inhibition (RAW264.7 [4]) | inhibition (RAW264.7 [5]) | inhibition (RAW264.7 [6]) | Activity (QGY-7703) | Activity (HepG2) | Activity (SMMC-7721)
CC(=O)Nc1ccc(S(=O)(=O)N2C/C(=C\c3ccc(C#N)cc3)C(=O)/C(=C/c3ccccc3F)C2)cc1 | 5.69 | 4.84 | 5.30 | 5.50 | > 80% | 4.95 |  |  |  |  |  |  | 
S=C(S)N1CCCC1 |  |  |  |  |  |  | Active | Active |  |  |  |  | 
COc1cc(/C=C2\CN(S(=O)(=O)c3ccc(F)cc3)C/C(=C\c3cccc([N+](=O)[O-])c3)C2=O)cc(OC)c1OC | 5.49 | 4.73 | 5.49 | 5.31 | > 80% | 4.96 |  |  |  |  |  |  | 
CC(=O)Nc1ccc(S(=O)(=O)N2C/C(=C\c3cccc([N+](=O)[O-])c3)C(=O)/C(=C/c3ccccc3F)C2)cc1 | 5.11 | 4.74 | 5.06 | 4.99 | > 80% | 4.70 |  |  | Active |  |  |  | 
COc1cc(/C=C/C(=O)CC(=O)/C=C/c2ccc(O)c(OC)c2)ccc1O [CURCUMIN] | 4.67 | 4.62 | 4.80 | 4.71 |  | 4.65 |  |  |  |  |  |  | 
COc1cc(/C=C2\CN(S(=O)(=O)c3ccc(F)cc3)C/C(=C\c3cc(OC)c(OC)c(OC)c3)C2=O)cc(OC)c1OC | 5.65 | 4.92 | 5.38 | 5.42 | > 80% | 4.96 |  |  |  |  |  |  | 
COc1cc(/C=C2\CN(S(=O)(=O)c3ccc(NC(C)=O)cc3)C/C(=C\c3cc(OC)c(OC)c(OC)c3)C2=O)cc(OC)c1OC | 5.72 | 4.87 | 5.41 | 5.46 | > 80% | 4.86 |  |  |  |  |  |  | 
CC(=O)Nc1ccc(S(=O)(=O)N2C/C(=C\c3ccc(C#N)cc3)C(=O)/C(=C/c3ccc(C#N)cc3)C2)cc1 | 5.48 | 4.85 | 5.31 | 5.15 | > 80% | 4.92 |  |  |  |  |  |  | 
CC(=O)Nc1ccc(S(=O)(=O)N2C/C(=C\c3cccc([N+](=O)[O-])c3)C(=O)/C(=C/c3cccc([N+](=O)[O-])c3)C2)cc1 | 5.17 | 4.80 | 5.15 | 5.07 | > 80% | 4.75 |  |  |  |  |  |  | 
COc1cc(/C=C2\CN(S(=O)(=O)c3ccc(F)cc3)C/C(=C\c3ccccc3F)C2=O)cc(OC)c1OC | 4.88 | 4.75 | 5.10 | 5.20 | > 80% | 4.80 |  |  | Active |  |  |  | 
COc1cc(/C=C2\CN(S(=O)(=O)c3ccc(NC(C)=O)cc3)C/C(=C\c3ccccc3F)C2=O)cc(OC)c1OC | 5.57 | 4.85 | 5.32 | 5.41 | > 80% | 4.91 |  |  |  |  |  |  | 
COc1cc(/C=C2\CN(S(=O)(=O)c3ccc(F)cc3)C/C(=C\c3cc(OC)cc(OC)c3)C2=O)cc(OC)c1 | 4.94 | 4.70 | 5.09 | 5.09 | > 80% | 4.84 |  |  |  |  |  |  | 
COc1cc(/C=C2\CN(S(=O)(=O)c3ccc(NC(C)=O)cc3)C/C(=C\c3cc(OC)c(OC)c(OC)c3)C2=O)cc(OC)c1 | 5.69 | 4.80 | 5.38 | 5.38 | > 80% | 4.87 |  |  |  |  |  |  | 
COc1cc(/C=C2\CN(S(=O)(=O)c3ccc(F)cc3)C/C(=C\c3ccc(C#N)cc3)C2=O)cc(OC)c1OC | 5.30 | 4.89 | 5.31 | 5.39 | > 80% | 4.89 |  |  |  |  |  |  | 
N#Cc1ccc(/C=C2\CN(S(=O)(=O)c3ccc(F)cc3)C/C(=C\c3ccccc3F)C2=O)cc1 | 4.70 | 4.66 | 5.09 | 4.99 | > 80% | 4.72 |  |  |  | Active |  |  | 
CC(=O)Nc1ccc(S(=O)(=O)N2C/C(=C\c3ccccc3F)C(=O)/C(=C/c3ccccc3F)C2)cc1 | 5.26 | 4.94 | 5.23 | 5.13 | > 80% | 4.88 |  |  |  |  |  |  | 
N#Cc1ccc(/C=C2\CN(S(=O)(=O)c3ccc(F)cc3)C/C(=C\c3ccc(C#N)cc3)C2=O)cc1 | 4.95 | 4.72 | 4.94 | 4.70 | > 80% | 4.72 |  |  |  | Active |  |  | 
COc1cccc2c1C(=O)c1c(O)c3c(c(O)c1C2=O)C[C@@](O)(C(=O)CO)C[C@@H]3O[C@H]1C[C@H](N)[C@H](O)[C@H](C)O1 [DOXORUBICIN] | 5.84 | 5.10 | 6.00 | 5.83 |  | 5.03 |  |  |  |  | Dose-dependent effect | Dose-dependent effect | Dose-dependent effect
O=C1/C(=C/c2cccc([N+](=O)[O-])c2)CN(S(=O)(=O)c2ccc(F)cc2)C/C1=C\c1ccccc1F | 4.83 | 4.77 | 5.15 | 5.11 | > 80% | 4.75 |  |  |  |  |  |  | 
COc1cc(/C=C2\CN(S(=O)(=O)c3ccc(F)cc3)C/C(=C\c3cc(OC)c(OC)c(OC)c3)C2=O)cc(OC)c1 | 5.28 | 4.91 | 5.41 | 5.27 | > 80% | 4.95 |  |  |  | Active |  |  | 
COc1cc(/C=C2\CN(S(=O)(=O)c3ccc(NC(C)=O)cc3)C/C(=C\c3cc(OC)cc(OC)c3)C2=O)cc(OC)c1 | 4.95 | 4.73 | 5.12 | 5.16 | > 80% | 4.74 |  |  |  |  |  |  | 
O=C1/C(=C/c2ccccc2F)CN(S(=O)(=O)c2ccc(F)cc2)C/C1=C\c1ccccc1F | 5.07 | 4.72 | 5.14 | 5.08 | > 80% | 4.87 |  |  |  |  |  |  | 
COc1cc(/C=C2\CN(S(=O)(=O)c3ccc(NC(C)=O)cc3)C/C(=C\c3cccc([N+](=O)[O-])c3)C2=O)cc(OC)c1OC | 5.59 | 4.81 | 5.48 | 5.71 | > 80% | 4.85 |  |  |  |  |  |  | 
COc1cc(/C=C2\CN(S(=O)(=O)c3ccc(F)cc3)C/C(=C\c3ccccc3F)C2=O)cc(OC)c1 | 4.85 | 4.73 | 5.03 | 5.16 | > 80% | 4.80 |  |  |  |  |  |  | 
O=C1/C(=C/c2cccc([N+](=O)[O-])c2)CN(S(=O)(=O)c2ccc(F)cc2)C/C1=C\c1cccc([N+](=O)[O-])c1 | 4.92 | 4.81 | 5.06 | 5.40 | > 80% | 4.95 |  |  |  |  |  |  | 
COc1cc(/C=C2\CN(S(=O)(=O)c3ccc(NC(C)=O)cc3)C/C(=C\c3ccccc3F)C2=O)cc(OC)c1 | 5.43 | 4.81 | 5.17 | 5.28 | > 80% | 4.81 |  |  |  |  |  |  | 
